Results from paper PMC12703733, “Probing Guanidino Pendant or Bridged Groups in Cyclic Antimicrobial Peptides Derived from Temporin L: A Strategy to Improve Efficacy against Gram-Negative Bacteria” (Journal of Medicinal Chemistry, 2025).
≈ marks a conversion by molar mass, not a printed value. Bridge positions count the residues as written; N and C are the ends. Square brackets hold non-standard residues; d marks the D form. Peptide text beside a SMILES is read from it. * marks the point of attachment. Phe(4-guanidino) = N=C(N)Nc1ccc(C[C@H](N)C(=O)O)cc1; Butanoyl(4-guanidino) = N=C(N)NCCCC(=O)*

What was measured:
[1] = type: cell-based, human; conditions: human; for viability at 2 h, 3.12 µM / viability at 2 h, 6.25 µM / viability at 2 h, 12.5 µM / viability at 2 h, 25 µM / viability at 2 h, 50 µM / viability at 2 h, 100 µM / viability at 24 h, 3.12 µM / viability at 24 h, 6.25 µM / viability at 24 h, 12.5 µM / viability at 24 h, 25 µM / viability at 24 h, 50 µM / viability at 24 h, 100 µM: Cell viability (%)
Protocol: (§1) For the evaluation of peptides’ cytotoxicity, the human immortalized keratinocytes (HaCaT cells), purchased from AddexBio (San Diego, CA, USA), and BEAS-2B were used. HaCaT cells were cultured in Dulbecco’s modified Eagle’s medium supplemented with 4 mM glutamine (DMEM), 10% heat-inactivated fetal bovine serum (FBS), and 0.1 mg/mL of penicillin and streptomycin, at 37 °C and 5% CO2. BEAS-2B cells were cultured in RPMI, supplemented with 2 mM glutamine (DMEM), 10% heat-inactivated fetal bovine serum (FBS), 1 mM sodium pyruvate, and 0.1 mg/mL of penicillin and streptomycin, at 37 °C and 5% CO2. Cytotoxicity was tested in vitro using a colorimetric assay that relies on the intracellular reduction of the yellow 3-(4,5-dimethylthiazol-2-yl)-2,5-diphenyltetrazolium bromide salt (MTT) by mitochondrial dehydrogenases of metabolically active cells in formazan crystals (purple). About 4 × 10^4 HaCaT and BEAS-2B cells, suspended in DMEM supplemented with 2% FBS, were plated in triplicate wells of a 96-well microtiter plate. The plate was incubated overnight at 37 °C and 5% CO2. Then, the cells were treated with different concentrations of the peptide (from 100 to 3.12 μM) in a fresh serum-free medium for 2 h and for a longer time (24 h). Following peptide treatment, the medium was removed, and MTT (0.5 mg/mL) solution in Hank’s buffer (136 mM NaCl, 4.2 mM Na2HPO4, 4.4 mM KH2PO4, 5.4 mM KCl, 4.1 mM NaHCO3, pH 7.2, supplemented with 20 mM D-glucose) was added to each well of the plate, that was then incubated for 4 h at 37 °C and 5% CO2. The purple formazan crystals were dissolved using acidified 2-propanol and a microplate reader (Infinite M200; Tecan, Salzburg, Austria) was used to measure the absorbance of each well at 570 nm. The percentage of cell viability was calculated compared to the control, which consisted of cells without any peptide treatment (corresponding to 100% viability) and all data represent the mean of three independent experiments ± SEM.

circular dichroism = conditions: water; pH ns; 25 °C; 150 uM
S. aureus ATCC 25923 = experiment: microbe, parasite or virus in culture; type: cell-based; conditions: ATCC 25923
Protocol: (§2) Bacterial strains used in this study were the Gram-positive S. aureus ATCC 25923, S. epidermidis ATCC 12228, B. megaterium BM11, S. [NT] 27591, E. faecalis ATCC 29212 and the Gram-negative E. coli ATCC 25922, P. aeruginosa ATCC 27853, A. baumannii ATCC 19606, E. coli D21 and P. aeruginosa PAO1. […] Bacterial cells in the mid log phase were diluted in Muller Hinton (MH) at a concentration of 2 × 10^6 cell/mL. […] Ciprofloxacin was used as antibiotic control. The plate was then incubated at 37 °C. MICs were obtained from three identical readings of four independent experiments.

P. aeruginosa PAO1 = experiment: microbe, parasite or virus in culture; type: cell-based; conditions: PAO1
Protocol: as §2

S. agalactiae ATCC 27591 = experiment: microbe, parasite or virus in culture; type: cell-based; conditions: ATCC 27591
Protocol: as §2

E. faecalis ATCC 29212 = experiment: microbe, parasite or virus in culture; type: cell-based; conditions: ATCC 29212
Protocol: as §2

A. baumannii ATCC 19606 = experiment: microbe, parasite or virus in culture; type: cell-based; conditions: ATCC 19606
Protocol: as §2

B. megaterium BM11 = experiment: microbe, parasite or virus in culture; type: cell-based; conditions: BM11
Protocol: as §2

P. aeruginosa ATCC 27853 = experiment: microbe, parasite or virus in culture; type: cell-based; conditions: ATCC 27853
Protocol: as §2

E. coli D21 = experiment: microbe, parasite or virus in culture; type: cell-based; conditions: D21
Protocol: as §2

E. coli ATCC 25922 = experiment: microbe, parasite or virus in culture; type: cell-based; conditions: ATCC 25922
Protocol: as §2

[2] = test system: S. epidermidis ATCC 12228; experiment: microbe, parasite or virus in culture; type: cell-based; conditions: ATCC 12228
Protocol: as §2

[3] = test system: human keratinocytes (HaCaT cells); type: cell-based
Protocol: as §1

Row | Structure (SMILES) | viability at 2 h, 6.25 µM [1] | viability at 2 h, 12.5 µM [1] | viability at 2 h, 25 µM [1] | viability at 2 h, 50 µM [1] | viability at 2 h, 100 µM [1] | viability at 24 h, 3.12 µM [1] | viability at 24 h, 6.25 µM [1] | viability at 24 h, 12.5 µM [1] | viability at 24 h, 25 µM [1] | viability at 24 h, 100 µM [1] | helicity (circular dichroism) | MIC (S. aureus ATCC 25923) | MIC (P. aeruginosa PAO1) | MIC (S. agalactiae ATCC 27591) | MIC (E. faecalis ATCC 29212) | MIC (A. baumannii ATCC 19606) | MIC (B. megaterium BM11) | MIC (P. aeruginosa ATCC 27853) | MIC (E. coli D21) | MIC (E. coli ATCC 25922) | other results
1 | CC[C@H](C)[C@H](NC(=O)[C@H](CCCNC(=N)N)NC(=O)[C@H]1CCC(=O)NCCCC[C@H](NC(=O)[C@H](Cc2ccccc2)NC(=O)[C@H](Cc2c[nH]c3ccccc23)NC(=O)[C@@H]2CCCN2C(=O)[C@@H](NC(=O)[C@H](Cc2ccccc2)NC(=O)CCCNC(=N)N)C(C)C)C(=O)N[C@@H](CCCCN)C(=O)N[C@@H](Cc2ccccc2)C(=O)N[C@H](CC(C)C)C(=O)N1)C(=O)N[C@@H](CC(C)C)C(N)=O [Peptide 5, guanidino-GABA-FVPWF[KKFle]RIL] ({Butanoyl(4-guanidino)}-FVPWFKKF[dL][dE]RIL-NH2; lactam 6-10) | 126% | 128% | 76% | 18% | 4% | 116 ± 7% | 137 ± 15% | 147 ± 15% | 58 ± 6% | 1 ± 1% | 16% | 3.12 µM (≈ 5.71 µg/mL) | 25 µM (≈ 45.8 µg/mL) | 1.56 µM (≈ 2.86 µg/mL) | 6.25 µM (≈ 11.4 µg/mL) | 3.12 µM (≈ 5.71 µg/mL) | 0.78 µM (≈ 1.43 µg/mL) | 50 µM (≈ 91.6 µg/mL) | 6.25 µM (≈ 11.4 µg/mL) | 6.25 µM (≈ 11.4 µg/mL) | CC50 at 24 h [1]: 24.6 µM; viability at 2 h, 3.12 µM [1]: 128%; viability at 24 h, 50 µM [1]: 1 ± 1%; MIC [2]: 3.12 µM (≈ 5.71 µg/mL)
2 | CC[C@H](C)[C@H](NC(=O)[C@H](CCCNC(=N)N)NC(=O)[C@H]1CCC(=O)NCCCC[C@H](NC(=O)[C@H](Cc2ccc(NC(=N)N)cc2)NC(=O)[C@H](Cc2c[nH]c3ccccc23)NC(=O)[C@@H]2CCCN2C(=O)[C@@H](NC(=O)[C@@H](N)Cc2ccccc2)C(C)C)C(=O)N[C@@H](CCCCN)C(=O)N[C@@H](Cc2ccccc2)C(=O)N[C@H](CC(C)C)C(=O)N1)C(=O)N[C@@H](CC(C)C)C(N)=O [Peptide 8, FVPW(p-guanidino)F[KKFle]RIL] (H-FVPW[Phe(4-guanidino)]KKF[dL][dE]RIL-NH2; lactam 6-10) | 112% | 115% | 110% | 92% | 63% | 101 ± 4% | 105 ± 6% | 110 ± 3% | 124 ± 1% | 58 ± 9% | 7% | 25 µM (≈ 44 µg/mL) | 25 µM (≈ 44 µg/mL) | 3.12 µM (≈ 5.49 µg/mL) | 25 µM (≈ 44 µg/mL) | 6.25 µM (≈ 11 µg/mL) | 0.78 µM (≈ 1.37 µg/mL) | 50 µM (≈ 88.1 µg/mL) | 6.25 µM (≈ 11 µg/mL) | 12.5 µM (≈ 22 µg/mL) | viability at 2 h, 3.12 µM [1]: 111%; MIC [2]: 6.25 µM (≈ 11 µg/mL)
3 | CC[C@H](C)[C@H](NC(=O)[C@H](CCCNC(=N)N)NC(=O)[C@H]1CCC(=O)NCCCC[C@H](NC(=O)[C@H](Cc2ccccc2)NC(=O)[C@H](Cc2c[nH]c3ccccc23)NC(=O)[C@@H]2CCCN2C(=O)[C@@H](NC(=O)[C@@H](N)Cc2ccccc2)C(C)C)C(=O)N[C@@H](CCCCN)C(=O)N[C@@H](Cc2ccc(NC(=N)N)cc2)C(=O)N[C@H](CC(C)C)C(=O)N1)C(=O)N[C@@H](CC(C)C)C(N)=O [Peptide 10, FVPWF[KK(p-guanidino)Fle]RIL] (H-FVPWFKK[Phe(4-guanidino)][dL][dE]RIL-NH2; lactam 6-10) | 110% | 112% | 112% | 101% | 82% | 98 ± 3% | 104 ± 2% | 103 ± 3% | 106 ± 3% | 95 ± 6% | 3% | 100 µM (≈ 176 µg/mL) | 25 µM (≈ 44 µg/mL) | 6.25 µM (≈ 11 µg/mL) | 50 µM (≈ 88.1 µg/mL) | 6.25 µM (≈ 11 µg/mL) | 0.78 µM (≈ 1.37 µg/mL) | 50 µM (≈ 88.1 µg/mL) | 6.25 µM (≈ 11 µg/mL) | 6.25 µM (≈ 11 µg/mL) | viability at 2 h, 3.12 µM [1]: 105%; viability at 24 h, 50 µM [1]: 116 ± 5%; MIC [2]: 12.5 µM (≈ 22 µg/mL)
4 | CC[C@H](C)[C@H](NC(=O)[C@H](CCCNC(=N)N)NC(=O)[C@@H]1CCCCNC(=N)NCCCC[C@H](NC(=O)[C@H](Cc2ccccc2)NC(=O)[C@H](Cc2c[nH]c3ccccc23)NC(=O)[C@@H]2CCCN2C(=O)[C@@H](NC(=O)[C@@H](N)Cc2ccccc2)C(C)C)C(=O)N[C@@H](CCCCN)C(=O)N[C@@H](Cc2ccccc2)C(=O)N[C@H](CC(C)C)C(=O)N1)C(=O)N[C@@H](CC(C)C)C(N)=O [Peptide 11, FVPWF{KKFlK}RIL] | 98% | 86% | 57% | 35% | 10% | 98 ± 4% | 97 ± 3% | 87 ± 3% | 35 ± 3% | 2 ± 1% | 76% | 3.12 µM (≈ 5.45 µg/mL) | 50 µM (≈ 87.3 µg/mL) | 3.12 µM (≈ 5.45 µg/mL) | 12.5 µM (≈ 21.8 µg/mL) | 1.56 µM (≈ 2.72 µg/mL) | 1.56 µM (≈ 2.72 µg/mL) | 50 µM (≈ 87.3 µg/mL) | 12.5 µM (≈ 21.8 µg/mL) | 6.25 µM (≈ 10.9 µg/mL) | CC50 at 24 h [1]: 21.3 µM; viability at 24 h, 50 µM [1]: 5 ± 3%; cytotoxicity (in words) [3]: Low cytotoxicity (up to 25 μM); MIC [2]: 1.56 µM (≈ 2.72 µg/mL)
